Patent US11160280B2, “Pesticial compounds” (BASF SE, priority 2017, dated 2021)

Experiments:
Format in all cases: in vivo
[1] = test system: yellow fever mosquito (Aedes aegypti); test: whole plant or invertebrate; conditions: 48 h, larval mortality visually assessed after 2 days, read-out: mortality in comparison with untreated controls
Protocol: Example B1: Action on Yellow Fever Mosquito (Aedes aegypti)
For evaluating control of yellow fever mosquito (Aedes aegypti) the test unit consisted of 96-well-microtiter plates containing 200 μl of tap water per well and 5-15 freshly hatched A. aegypti larvae.
The active compounds were formulated using a solution containing 75% (v/v) water and 25% (v/v) DMSO. Different concentrations of formulated compounds or mixtures were sprayed onto the insect diet at 2.5 μl, using a custom built micro atomizer, at two replications.
After application, microtiter plates were incubated at 28+1° C., 80+5% RH for 2 days. Larval mortality was then visually assessed.

[2] = test system: boll weevil (Anthonomus grandis); test: Action on boll weevil (Anthonomus grandis), eggs on insect diet in microtiter plates; conditions: 120 h, egg and larval mortality after 5 days, read-out: mortality in comparison with untreated controls
Protocol: Example B3: Action on Boll Weevil (Anthonomus grandis)
For evaluating control of boll weevil (Anthonomus grandis) the test unit consisted of 96-well-microtiter plates containing an insect diet and 5-10 A. grandis eggs.
The compounds were formulated using a solution containing 75% v/v water and 25% v/v DMSO. Different concentrations of formulated compounds were sprayed onto the insect diet at 5 μl, using a custom built micro atomizer, at two replications.
After application, microtiter plates were incubated at about 25±1° C. and about 75±5% relative humidity for 5 days. Egg and larval mortality was then visually assessed.

[3] = test system: tobacco budworm (Heliothis virescens); test: Action on tobacco budworm (Heliothis virescens), eggs on insect diet in microtiter plates; conditions: 120 h, egg and larval mortality after 5 days, read-out: mortality in comparison with untreated controls
Protocol: Example B5: Action on Tobacco Budworm (Heliothis virescens)
For evaluating control of tobacco budworm (Heliothis virescens) the test unit consisted of 96-well-microtiter plates containing an insect diet and 15-25 H. virescens eggs.
The compounds were formulated using a solution containing 75% v/v water and 25% v/v DMSO. Different concentrations of formulated compounds were sprayed onto the insect diet at 10 μl, using a custom built micro atomizer, at two replications.
After application, microtiter plates were incubated at about 28±1° C. and about 80±5% relative humidity for 5 days. Egg and larval mortality was then visually assessed.

[4] = test system: Southern Armyworm (Spodoptera eridania), 2nd Instar Larvae; test: Action on southern armyworm (Spodoptera eridania), 2nd instar larvae on sprayed lima bean plants; conditions: 96 h, 2nd instar larvae on lima bean plants, 4 days after treatment, read-out: mortality in comparison with untreated controls
Protocol: Example B7: Action on Southern Armyworm (Spodoptera eridania), 2nd Instar Larvae
The active compounds were formulated by a Tecan liquid handler in 100% cyclohexanone as a 10,000 ppm solution supplied in tubes. The 10,000 ppm solution was serially diluted in 100% cyclohexanone to make interim solutions. These served as stock solutions for which final dilutions were made by the Tecan in 50% acetone:50% water (v/v) into 10 or 20 ml glass vials. A nonionic surfactant (Kinetic®) was included in the solution at a volume of 0.01% (v/v). The vials were then inserted into an automated electrostatic sprayer equipped with an atomizing nozzle for application to plants/insects.
Lima bean plants (variety Sieva) were grown 2 plants to a pot and selected for treatment at the 1st true leaf stage. Test solutions were sprayed onto the foliage by an automated electrostatic plant sprayer equipped with an atomizing spray nozzle. The plants were dried in the sprayer fume hood and then removed from the sprayer. Each pot was placed into perforated plastic bags with a zip closure. About 10 to 11 armyworm larvae were placed into the bag and the bags zipped closed. Test plants were maintained in a growth room at about 25° C. and about 20-40% relative humidity for 4 days, avoiding direct exposure to fluorescent light (24 hour photoperiod) to prevent trapping of heat inside the bags. Mortality and reduced feeding were assessed 4 days after treatment, compared to untreated control plants.

[5] = test system: Diamond Back Moth (Plutella xylostella); test: Action on diamond back moth (Plutella xylostella), cabbage leaf dip; conditions: foliar, 3rd instar larvae on dipped cabbage leaves, mortality 72 hours after treatment, read-out: mortality in comparison with untreated controls
Protocol: Example B6: Action on Diamond Back Moth (Plutella xylostella)
The active compound is dissolved at the desired concentration in a mixture of 1:1 (vol:vol) distilled water:acetone. Surfactant (Kinetic® HV) is added at a rate of 0.01% (vol/vol). The test solution is prepared at the day of use.
Leaves of cabbage were dipped in test solution and air-dried. Treated leaves were placed in petri dishes lined with moist filter paper and inoculated with ten 3rd instar larvae. Mortality was recorded 72 hours after treatment. Feeding damages were also recorded using a scale of 0-100%.

[6] = test system: Orchid thrips (Dichromothrips corbetti); test: Action on orchid thrips (Dichromothrips corbetti), floral-immersion technique; conditions: adult thrips, mortality 72 hours after treatment, read-out: mortality in comparison with untreated controls
Protocol: Example B2: Action on Orchid thrips (Dichromothrips corbetti)
Dichromothrips corbetti adults used for bioassay were obtained from a colony maintained continuously under laboratory conditions. For testing purposes, the test compound is diluted in a 1:1 mixture of acetone:water (vol:vol), plus Kinetic® HV at a rate of 0.01% v/v.
Thrips potency of each compound was evaluated by using a floral-immersion technique. All petals of individual, intact orchid flowers were dipped into treatment solution and allowed to dry in Petri dishes. Treated petals were placed into individual re-sealable plastic along with about […]. All test arenas were held under continuous light and a temperature of about 28° C. for duration of the assay. After 3 days, the numbers of live thrips were counted on each petal. The percent mortality was recorded 72 hours after treatment.

Cc1cccc(C)c1NC(=S)N/N=C/c1ccc2c(COc3ccc(OC(F)(F)F)cc3)nn(C)c2c1 [Example C-1, 1-(2,6-dimethylphenyl)-3-[(E)-[1-methyl-3-[[4-(trifluoromethoxy)phenoxy]methyl]indazol-6-yl]methyleneamino]thiourea]
≥ 75%: mortality at 800 ppm [1] | mortality at 800 ppm [2] | mortality at 800 ppm [3] | mortality at 300 ppm [4] | mortality at 500 ppm [5] | mortality at 500 ppm [6]

Cc1cccc(C)c1N1C(=O)CS/C1=N\N=C\c1ccc2c(COc3ccc(OC(F)(F)F)cc3)nn(C)c2c1 [Example C-2, (2Z)-3-(2,6-dimethylphenyl)-2-[(E)-[1-methyl-3-[[4-(trifluoromethoxy)phenoxy]methyl]indazol-6-yl]methylenehydrazono]thiazolidin-4-one]
≥ 75%: mortality at 800 ppm [1] | mortality at 800 ppm [2] | mortality at 800 ppm [3] | mortality at 500 ppm [5] | mortality at 500 ppm [6]

CC(C)c1ccccc1N1C(=O)CS/C1=N\N=C\c1ccc2c(COc3ccc(OC(F)(F)F)cc3)nn(C)c2c1 [Example C-4, (2Z)-3-(2-isopropylphenyl)-2-[(E)-[1-methyl-3-[[4-(trifluoromethoxy)phenoxy]methyl]indazol-6-yl]methylenehydrazono]thiazolidin-4-one]
≥ 75%: mortality at 800 ppm [1] | mortality at 800 ppm [2] | mortality at 500 ppm [5] | mortality at 500 ppm [6]

CO[C@@H]1[C@@H](OC)[C@H](C)O[C@@H](OC(=O)Nc2ccc3c(NC(=O)c4ccc(OC(F)(F)F)cc4)nn(C)c3c2)[C@@H]1OC [Example C-5, [(2S,3R,4R,5S,6S)-3,4,5-trimethoxy-6-methyl-tetrahydropyran-2-yl] N-[1-methyl-3-[[4-(trifluoromethoxy)benzoyl]amino]indazol-6-yl]carbamate]
≥ 75%: mortality at 800 ppm [1] | mortality at 800 ppm [2]

CC(C)c1ccccc1NC(=S)N/N=C/c1ccc2c(C(=O)Nc3ccc(OC(F)(F)F)cc3)nn(C)c2c1 [Example C-7, 6-[(E)-[(2-isopropylphenyl)carbamothioylhydrazono]methyl]-1-methyl-N-[4-(trifluoromethoxy)phenyl]indazole-3-carboxamide]
≥ 75%: mortality at 800 ppm [1] | mortality at 800 ppm [2] | mortality at 800 ppm [3] | mortality at 300 ppm [4] | mortality at 500 ppm [5]

CC(C)c1ccccc1N1C(=O)CS/C1=N\N=C\c1ccc2c(C(=O)Nc3ccc(OC(F)(F)F)cc3)nn(C)c2c1 [Example C-8, 6-[(E)-[(Z)-[3-(2-isopropylphenyl)-4-oxo-thiazolidin-2-ylidene]hydrazono]methyl]-1-methyl-N-[4-(trifluoromethoxy)phenyl]indazole-3-carboxamide]
≥ 75%: mortality at 800 ppm [1] | mortality at 800 ppm [2] | mortality at 800 ppm [3] | mortality at 300 ppm [4] | mortality at 500 ppm [5]

CC(C)c1ccccc1NC(=S)N/N=C/c1cc2c(cn1)c(COc1ccc(OC(F)(F)F)cc1)nn2C [Example C-15, 1-(2-isopropylphenyl)-3-[(E)-[1-methyl-3-[[4-(trifluoromethoxy)phenoxy]methyl]pyrazolo[4,3-c]pyridin-6 yl]methyleneamino]thiourea]
≥ 75%: mortality at 800 ppm [1] | mortality at 800 ppm [2] | mortality at 800 ppm [3] | mortality at 300 ppm [4] | mortality at 500 ppm [5] | mortality at 500 ppm [6]

CC(C)c1ccccc1NC(=S)NN=Cc1cc(F)c2c(C(=O)Nc3ccc(OC(F)(F)F)cc3)nn(C)c2c1 [Example C-17, 4-fluoro-6-[[(2-isopropylphenyl)carbamothioylhydrazono]methyl]—1-methyl-N-[4-(trifluoromethoxy)phenyl]indazole-3-carboxamide]
≥ 75%: mortality at 800 ppm [2] | mortality at 800 ppm [3] | mortality at 300 ppm [4]

CC(C)c1ccccc1NC(=S)NN=Cc1cc(F)c2c(C(=O)N(C)c3ccc(OC(F)(F)F)cc3)nn(C)c2c1 [Example C-18, 4-fluoro-6-[[(2-isopropylphenyl)carbamothioylhydrazono]methyl]-N,1-dimethyl-N-[4-(trifluoromethoxy)phenyl]indazole-3-carboxamide]
≥ 75%: mortality at 800 ppm [2] | mortality at 800 ppm [3] | mortality at 300 ppm [4] | mortality at 500 ppm [5]

CC(C)c1ccccc1N1C(=O)CS/C1=N\N=Cc1cc(F)c2c(C(=O)N(C)c3ccc(OC(F)(F)F)cc3)nn(C)c2c1 [Example C-19, 4-fluoro-6-[[(Z)-[3-(2-isopropylphenyl)-4-oxo-thiazolidin-2-ylidene]hydrazono]methyl]-N,1-dimethyl-N-[4-(trifluoromethoxy)phenyl]indazole-3-carboxamide]
≥ 75%: mortality at 800 ppm [1] | mortality at 800 ppm [2] | mortality at 800 ppm [3] | mortality at 300 ppm [4] | mortality at 500 ppm [5] | mortality at 500 ppm [6]

CC(C)c1ccccc1NC(=S)N/N=C/c1ccc2c(COc3ccc(OC(F)(F)F)cc3)nsc2c1 [Example C-22, 1-(2-isopropylphenyl)-3-[(E)-[3-[[4-(trifluoromethoxy)phenoxy]methyl]-1,2-benzothiazol-6-yl]methyleneamino]thiourea]
≥ 75%: mortality at 800 ppm [2] | mortality at 800 ppm [3] | mortality at 300 ppm [4] | mortality at 500 ppm [5]

CC(C)c1ccccc1N1C(=O)CS/C1=N\N=C\c1ccc2c(COc3ccc(OC(F)(F)F)cc3)nsc2c1 [Example C-23, (2Z)-3-(2-isopropylphenyl)-2-[(E)-[3-[[4-(trifluoromethoxy)phenoxy]methyl]-1,2-benzothiazol-6-yl]methylenehydrazono]thiazolidin-4-one]
≥ 75%: mortality at 800 ppm [2] | mortality at 800 ppm [3] | mortality at 300 ppm [4] | mortality at 500 ppm [5]

CC(C)c1ccccc1NC(=S)N/N=C/c1ccc2c(COc3ccc(OC(F)(F)F)cc3)noc2c1 [Example C-24, 1-(2-isopropylphenyl)-3-[(E)-[3-[[4-(trifluoromethoxy)phenoxy]methyl]-1,2-benzoxazol-6-yl]methyleneamino]thiourea]
≥ 75%: mortality at 800 ppm [2] | mortality at 800 ppm [3] | mortality at 500 ppm [5]

CC(C)c1ccccc1N1C(=O)CS/C1=N\N=C\c1ccc2c(COc3ccc(OC(F)(F)F)cc3)noc2c1 [Example C-25, (2Z)-3-(2-isopropylphenyl)-2-[(E)-[3-[[4-(trifluoromethoxy)phenoxy]methyl]-1,2-benzoxazol-6-yl]methylenehydrazono]thiazolidin-4-one]
≥ 75%: mortality at 800 ppm [1] | mortality at 800 ppm [2] | mortality at 800 ppm [3] | mortality at 500 ppm [5]
